Laboratory results reported in article PMC8224385, “X-ray screening identifies active site and allosteric inhibitors of SARS-CoV-2 main protease” (Science (New York, N.y.), 2021).
Counter-ions that a name gives are not always drawn. Like-named read-outs stand apart in the source and are kept apart here.

How the values were obtained:
SARS-CoV-2 = test: microbe, parasite or virus in culture; assay type: cell-based; conditions: for antiviral activity (in words) / reduction in infectious particles: SARS-CoV-2, Vero E6 cells; for reduction in infectious particles: compounds considered antivirally active
in vitro = conditions: African green monkey
[1] = Cell viability of Vero E6 cells (CCK-8 method); conditions: African green monkey
[2] = Severe acute respiratory syndrome coronavirus 2, Vero C1008, SARS-CoV-2 infectious particles, Vero E6 cells, immunofocus assay, read-out: EC50 for the viral titer reduction
[3] = Severe acute respiratory syndrome coronavirus 2, Vero C1008, read-out: EC50 for the viral titer reduction

Compound: PD-168568
- antiviral activity (in words) (SARS-CoV-2): inactive

Compound: O=C1c2ccccc2CCC1CNCCc1ccc(O)cc1 (stereo not drawn) [HEAT, 2-[β-(4-hydroxyphenyl)-ethylaminomethyl]-tetralone]
- EC50 (SARS-CoV-2; [2]): 24.1 µM
- CC50 (in vitro): 55.4 µM

Compound: Cc1ccc(C(=O)C(C)CN2CCCCC2)cc1 (centres unmarked) [tolperisone]
- reduction in infectious particles (SARS-CoV-2): ≥ 100 fold
- EC50 (SARS-CoV-2; [2]): 19.2 µM
- CC50 (in vitro): > 100 µM

Compound: O=c1n(CC2CO2)c(=O)n(CC2CO2)c(=O)n1CC1CO1 (centres unmarked) [triglycidyl isocyanurate]
- reduction in infectious particles (SARS-CoV-2): ≥ 100 fold
- EC50 (SARS-CoV-2; [2]): 30 µM
- CC50 [1]: > 100 µM

Compound: CCc1ccc(Cc2ccc3c(c2)[C@]2(OC3)O[C@H](CO)[C@@H](O)[C@H](O)[C@H]2O)cc1 [tofogliflozin]
- antiviral activity (in words) (SARS-CoV-2): inactive

Compound: CCOc1cc2ncc(C#N)c(Nc3ccc(F)c(Cl)c3)c2cc1NC(=O)/C=C/CN(C)C [pelitinib]
- reduction in infectious particles (SARS-CoV-2): ≥ 100 fold
- EC50 (SARS-CoV-2; [2]): 1.25 µM
- CC50 (in vitro): 14 µM

Compound: O=C1Nc2ccccc2C2(CCN(CCc3ccc(C(F)(F)F)cc3)CC2)O1 [RS-102895]
- EC50 (SARS-CoV-2; [3]): 19.8 µM
- CC50 [1]: 55 µM

Compound: CC(C)c1ccc2c(c1)C(N1CCN(CCO)CC1)Cc1ccc(F)cc1S2 (centres unmarked) [isofloxythepin]
- EC50 (SARS-CoV-2; [2]): 4.8 µM
- CC50 (in vitro): 17 µM

Compound: CCc1cc(O)c(Oc2ccc(C(N)=O)cc2F)cc1F [MUT056399]
- reduction in infectious particles (SARS-CoV-2): ≥ 100 fold
- EC50 (SARS-CoV-2; [2]): 38.2 µM
- CC50 (in vitro): > 100 µM

Compound: CC(C(O)c1ccc(O)cc1)N1CCC(Cc2ccccc2)CC1 (centres unmarked) [ifenprodil]
- reduction in infectious particles (SARS-CoV-2): ≥ 100 fold
- EC50 (SARS-CoV-2; [2]): 46.9 µM
- CC50 [1]: > 100 µM

Compound: O=C(NC1CCNCC1)c1n[nH]cc1NC(=O)c1c(Cl)cccc1Cl [AT7519, N-(4-piperidinyl)-4-(2,6-dichlorobenzoylamino)-1H-pyrazole-3-carboxamide]
- reduction in infectious particles (SARS-CoV-2): ≥ 100 fold
- EC50 (SARS-CoV-2; [3]): 25.2 µM

Compound: c1ccc2nc(N3CCNCC3)ccc2c1 [quipazine maleate]
- EC50 (SARS-CoV-2; [2]): 31.6 µM
- CC50 (in vitro): > 100 µM

Compound: CCCC[C@@H](C=O)NC(=O)[C@H](CC(C)C)NC(=O)OCc1ccccc1 [calpeptin]
- reduction in infectious particles (SARS-CoV-2): ≥ 100 fold
- CC50 [1]: > 100 µM
